Results taken from article PMC8772768, “Phytochemical Analysis and Dermo-Cosmetic Evaluation of Cymbidium sp. (Orchidaceae) Cultivation By-Products” (Antioxidants, 2021).
Converted amounts (≈) assume the structure as drawn. “Also recorded” adds a separate entry of the source.

Columns and labels:
collagenase = assay: Collagenase inhibition assay (fluorescent MMP-2 substrate); type: biochemical; conditions: for Collagenase inhibitory activity (in words): pure compounds at 25, 100, 250 μM; for Collagenase inhibition: mean ± SD, n = 3
Method: Collagenase inhibitory activity was determined by a previously described enzymatic method with slight modifications, based on the fluorescence of the MMP-2 substrate after its degradation by collagenase. In a 96-well black microplate, 50 μL of Tris-HCL buffer (10 mM, pH = 7.3), 25 μL of the tested sample (dissolved in Tris-HCL buffer), and 25 μL of collagenase solution (30 μg/mL dissolved in Tris-HCL buffer) were preincubated for 10 min at 37 °C, avoiding light exposure. Afterwards, 25 μL of MMP-2 substrate (50 μM dissolved in Tris-HCL buffer) were added, and the plate was incubated for an additional 30 min at 37 °C in the dark. The fluorescent intensity was measured at an excitation maximum of 320 nm and an emission maximum of 405 nm using a Tecan (Infinite 200 Pro series, Männedorf, Switzerland). Crude extracts were evaluated at 75 μg/mL, 150 μg/mL, and 300 μg/mL and pure compounds at 25 μΜ, 100 μΜ, and 250 μΜ, respectively, dissolved in PBS buffer, while the percentage of DMSO was under 5% of the total volume inside the plate. […] Experiments were performed in triplicate. The collagenase inhibitory activity was calculated by the following equation:Inhibition (%) = (Abs A − Abs B)/(Abs A) × 100 where Abs A = Abs Control − Abs Control Blank and Abs B = Abs Sample − Abs Sample Blank. Abs Control is the absorbance of Tris-HCL buffer with 5% DMSO, collagenase enzyme, and substrate, and Abs Sample is the absorbance of the tested sample in the Tris-HCL buffer, collagenase enzyme, and substrate. Blanks consist of all the above reagents except the enzyme.

[1] = system: human cell lung cancer (NCI-H187) cell line; parameters: method as in PMID 30450973; conditions: cited from earlier work
tyrosinase = tyrosinase (Agaricus bisporus, UniProt C7FF04); assay: Tyrosinase inhibition assay (L-DOPA, dopachrome at 475 nm); type: biochemical; conditions: pure compounds at 25, 100, 250 μM
Sequence of tyrosinase (C7FF04 1-392): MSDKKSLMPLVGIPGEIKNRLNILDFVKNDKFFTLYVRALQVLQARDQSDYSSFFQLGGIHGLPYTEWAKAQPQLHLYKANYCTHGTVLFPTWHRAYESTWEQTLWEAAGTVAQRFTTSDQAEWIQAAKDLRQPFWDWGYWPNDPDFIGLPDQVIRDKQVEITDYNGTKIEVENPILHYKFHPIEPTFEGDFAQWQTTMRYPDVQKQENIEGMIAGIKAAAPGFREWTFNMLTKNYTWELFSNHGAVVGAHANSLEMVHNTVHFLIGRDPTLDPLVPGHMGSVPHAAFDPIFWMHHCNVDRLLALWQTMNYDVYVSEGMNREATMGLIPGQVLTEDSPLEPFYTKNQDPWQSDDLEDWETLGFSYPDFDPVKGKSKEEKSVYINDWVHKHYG

elastase = biological target: T1, elastase (Sus scrofa, UniProt P00772); assay: Elastase inhibition assay (N-succinyl-Ala-Ala-Ala-p-nitroanilide); type: biochemical; conditions: for Elastase inhibitory activity (in words): pure compounds at 25, 100, 250 μM
T1 construct: purchased Sigma-Aldrich
T1 sequence (P00772 27-266): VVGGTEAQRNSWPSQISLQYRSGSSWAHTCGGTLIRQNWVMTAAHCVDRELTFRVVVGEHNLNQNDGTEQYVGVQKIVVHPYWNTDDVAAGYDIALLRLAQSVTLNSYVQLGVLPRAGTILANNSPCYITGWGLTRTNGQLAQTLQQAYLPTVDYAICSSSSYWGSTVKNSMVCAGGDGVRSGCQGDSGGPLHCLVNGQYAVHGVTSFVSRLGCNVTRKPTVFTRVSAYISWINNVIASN
Method: Elastase inhibitory activity was measured by the presence of p-nitroaniline, after the reaction of the elastase enzyme with the substrate N-succinyl-Ala-Ala-Ala-p-nitroanilide, using a previously described protocol with minor modifications. At first, 70 μL of Trizma-base buffer (50 mM, pH = 7.5), 10 μL of the tested sample, and 5 μL of elastase solution (0.4725 U/mL dissolved in Trizma-base buffer) were mixed in the 96-well microplate and were incubated for 10 min at 37 °C, avoiding light exposure. Following this procedure, 15 μL of the substrate (2 mM dissolved in Trizma-base buffer) were added to every well of the plate, and then the plate was incubated for 30 min at 37 °C. The presence of p-nitroaniline was measured spectrophotometrically at 405 nm using a Tecan (Infinite 200 Pro series, Männedorf, Switzerland). The final tested concentrations of the extracts and pure compounds were 50 μg/mL, 100 μg/mL, 300 μg/mL, and 25 μΜ, 100 μΜ, 250 μΜ, respectively, dissolved in Trizma-base buffer, and the percentage of DMSO was under 5% of the total volume inside the plate. The negative control of the assay was 5% DMSO Trizma-base buffer, and the positive was Elastatinal (IC100 = 5 μg/mL and IC50 = 0.5 μg/mL), a strong irreversible competitive elastase inhibitor. Experiments were performed in triplicate.
The elastase inhibitory activity was calculated by the following equation:Inhibition (%) = (Abs A − Abs B)/(Abs A) × 100 where Abs A = Abs Control − Abs Control Blank and Abs B = Abs Sample − Abs Sample Blank. Abs Control is the absorbance of Trizma-base Buffer with 5% DMSO, elastase enzyme, and substrate, and Abs Sample is the absorbance of the tested sample in the Trizma-base buffer, elastase enzyme, and substrate. Blanks consist of all the above reagents except the enzyme.

[2] = DPPH radical scavenging assay; type: biochemical; conditions: dissolved in DMSO
Method: The final tested concentrations of the extracts were 5 μg/mL, 10 μg/mL, 20 μg/mL, 50 μg/mL, 100 μg/mL, 250 μg/mL, and 500 μg/mL dissolved in DMSO. […] Experiments were performed in triplicate. The antioxidant activity was calculated by the following equation:Inhibition (%) = (Abs A − Abs B)/(Abs A) × 100 where Abs A = Abs Control − Abs Control Blank and Abs B = Abs Sample − Abs Sample Blank. Abs Control is the absorbance of the negative control, and Abs Sample is the absorbance of the tested sample. Blanks consist of all the above reagents except the free radical reagent.

mushroom tyrosinase = system: mushroom tyrosinase; parameters: method as in PMID 18503477; conditions: cited from earlier work

For `COc1cc2ccc3cccc(O)c3c2c(OC)c1O` [Compound 1, bulbophyllanthrin], the “Collagenase inhibitory activity (in words)” value (collagenase) was “dose-dependent anti-collagenase activity”.
`COc1ccc2c(ccc3cc(OC)c(O)c(OC)c32)c1` [Compound 2, 3-hydroxy-2,4,7-trimethoxy-phenanthrene] gave a Collagenase inhibition (collagenase; pure compound at 25 μM) of 12.62 ± 1.48%, a Collagenase inhibition (collagenase; pure compound at 100 μM) of 50.05 ± 2.67% and a Collagenase inhibition (collagenase; pure compound at 250 μM) of 72.73 ± 1.38%. The “Collagenase inhibitory activity (in words)” value (collagenase) was “dose-dependent anti-collagenase activity”.
For `COc1cc2c(c(OC)c1O)-c1c(O)cccc1CC2` [Compound 4, marylaurencinol A], the “Collagenase inhibitory activity (in words)” value (collagenase) was “dose-dependent anti-collagenase activity”.
For `COC1=CC(=O)c2c(ccc3cccc(O)c23)C1=O` [Compound 5, 5-hydroxy-2-methoxy-1,4-phenanthrenequinone], the “Collagenase inhibitory activity (in words)” value (collagenase) is listed as “dose-dependent anti-collagenase activity” and the cytotoxic activity [1] is listed as “cytotoxic activity”.
With `COC1=CC(=O)C2=C(CCc3cccc(O)c32)C1=O` [Compound 6, ephemeranthroquinone B] the “Collagenase inhibitory activity (in words)” value (collagenase) was “dose-dependent anti-collagenase activity”.
With `COc1cc(O)cc(CCc2ccc(O)c(OC)c2)c1` [Compound 8, gigantol] the “Tyrosinase inhibitory activity (in words)” value (tyrosinase) was “important anti-tyrosinase activity; also recorded: moderate, dose-dependent, inhibition activity”, the “Elastase inhibitory activity (in words)” value (elastase) was “non-active” and the “Collagenase inhibitory activity (in words)” value (collagenase) was “non-active”.
With `COc1cc(CCc2cc(O)cc(O)c2)ccc1O` [Compound 9, tristin] the “Tyrosinase inhibitory activity (in words)” value (tyrosinase) was “important anti-tyrosinase activity; also recorded: moderate, dose-dependent, inhibition activity”, the “Elastase inhibitory activity (in words)” value (elastase) was “non-active” and the “Collagenase inhibitory activity (in words)” value (collagenase) was “non-active”.
In the case of `Cc1cc(O)cc(O)c1` [Compound 14, orcinol], the “Elastase inhibitory activity (in words)” value (elastase) is reported as “inactive” and the “Collagenase inhibitory activity (in words)” value (collagenase) is reported as “inactive”.
For `CC(C)C[C@H](NC(=O)N[C@H](C(=O)N[C@@H](CCC(N)=O)C(=O)N[C@@H](C)C=O)[C@@H]1CCNC(=N)N1)C(=O)O` [Elastatinal, reference compound], the IC50 (elastase; positive control) was 0.975 µM and the “IC100 (elastase, positive control)” value (elastase; positive control) was 5 µg/mL.
In the case of `O=C(O)c1cc(O)c(O)c(O)c1` [Gallic Acid], the “IC50 (DPPH, positive control)” value [2] is reported as 100 µg/mL (≈ 588 µM).
`CC(C)C[C@H](NP(=O)(O)O[C@@H]1O[C@@H](C)[C@H](O)[C@@H](O)[C@H]1O)C(=O)N[C@@H](Cc1c[nH]c2ccccc12)C(=O)O` [Phosphoramidon, reference compound] showed an IC50 (collagenase; positive control) of 6.9 µM.
In the case of `Oc1ccc(/C=C/c2cc(O)cc(O)c2)cc1` [resveratrol], the “inhibitory effects on mushroom tyrosinase” value (mushroom tyrosinase) is given as “potent inhibitory effects”.
